The text below walks through data of patent US20250215042A1, “MANNOSE-TARGETED COMPOSITIONS” (GENEVANT SCIENCES GMBH, priority 2022, published 2025).

Test [1] has as its system human CD14+ monocyte derived M2 macrophages. The test is described as follows: Binding of biotin-mannose/AF488-streptavidin complex to M2 macrophages (flow cytometry). The conditions noted are these: FIG. 2; for mannose ligand conjugated fluorescence (ligand binding): M2 macrophages, complex at 0.5, 0.1 and 0.02 μM, 4° C., 1.5 hours. The format is cell-based. (In general: A flow cytometer gives signals particle by particle.)

The test system of test [2] is human CD14+ monocyte derived M1 macrophages. Description: Binding of biotin-mannose/AF488-streptavidin complex to M1 macrophages (flow cytometry). The conditions noted are these: for mannose ligand conjugated fluorescence (ligand binding): M1 macrophages, complex at 0.5, 0.1 and 0.02 μM, 4° C., 1.5 hours; for binding to M1 macrophages, tetra-, hexa- and octa-valent compared: FIG. 3. The format is cell-based.

The subject of another test is M1 macrophages. Description: D-mannose competition with Cy3-tetra-mannose-siCD45 uptake in M1 macrophages. The test is classed as cell-based, human. The note with it: competitor 139 mM, 5 minutes before conjugate 5 μg/mL, 1 hour; FIG. 5. As for the experimental part:
OptiMEM containing D-mannose or D-galactose was added onto testing cells to reach the final concentration of 139 mM and incubated at 37° C. for 5 minutes. […] The cells were then washed with PBS 3 times and fixed with 4% PFA for 10 minutes at room temperature. The chambers were removed from the slides and the cells were mounted with one drop of mounting media containing DAPI staining for the nuclei. The slides were covered, sealed and analyzed under fluorescent microscope.

Consider `O=C(CCCC[C@@H]1SC[C@@H]2NC(=O)N[C@@H]21)NCCCCCCOC1O[C@H](CO)[C@@H](O)[C@H](O)[C@@H]1O` (stereo partly shown) [Compound 39], for which the “mannose ligand conjugated fluorescence (ligand binding)” value (from here on “mannose ligand conjugated fluorescence”) in test [1] and in test [2] (FIG. 2) was “Dose dependent increase” each time. In the case of `O=C[C@@H](O)[C@@H](O)[C@H](O)[C@H](O)CO` [D-mannose], the “competitive inhibition of uptake of Cy3-tetra-mannose-siCD45” value with M1 macrophages is listed as “substantially inhibited the uptake”. Take `O=C[C@H](O)[C@@H](O)[C@@H](O)[C@H](O)CO` [D-Galactose]: in the test on M1 macrophages, the “competitive inhibition of uptake of Cy3-tetra-mannose-siCD45” value is recorded as “no competitive binding effect”. For `O=C(CC[C@H](NC(=O)CCCC[C@H]1SC[C@H]2NC(=O)N[C@H]21)C(=O)NCC(=O)Nc1cc(C(=O)NCCOCCOCCO[C@H]2O[C@H](CO)[C@@H](O)[C@H](O)[C@@H]2O)cc(C(=O)NCCOCCOCCO[C@H]2O[C@H](CO)[C@@H](O)[C@H](O)[C@@H]2O)c1)NCC(=O)Nc1cc(C(=O)NCCOCCOCCO[C@H]2O[C@H](CO)[C@@H](O)[C@H](O)[C@@H]2O)cc(C(=O)NCCOCCOCCO[C@H]2O[C@H](CO)[C@@H](O)[C@H](O)[C@@H]2O)c1` [Compound 36], the “binding affinity ranked by valency (mono-, di-, tetra-valent)” value is “highest binding affinity” in test [1] (M2 cells) and “highest binding affinity” in test [2] (M1 cells, FIG. 2). The “mannose ligand conjugated fluorescence” value in test [1] and in test [2] (FIG. 2) was “Dose dependent increase” each time. Regarding `O=C(CC[C@H](NC(=O)CC[C@H](NC(=O)CCCC[C@@H]1SC[C@@H]2NC(=O)N[C@@H]21)C(=O)N[C@@H](CCC(=O)NCC(=O)Nc1cc(C(=O)NCCOCCOCCO[C@H]2O[C@H](CO)[C@@H](O)[C@H](O)[C@@H]2O)cc(C(=O)NCCOCCOCCO[C@H]2O[C@H](CO)[C@@H](O)[C@H](O)[C@@H]2O)c1)C(=O)NCC(=O)Nc1cc(C(=O)NCCOCCOCCO[C@H]2O[C@H](CO)[C@@H](O)[C@H](O)[C@@H]2O)cc(C(=O)NCCOCCOCCO[C@H]2O[C@H](CO)[C@@H](O)[C@H](O)[C@@H]2O)c1)C(=O)NCC(=O)Nc1cc(C(=O)NCCOCCOCCO[C@H]2O[C@H](CO)[C@@H](O)[C@H](O)[C@@H]2O)cc(C(=O)NCCOCCOCCO[C@H]2O[C@H](CO)[C@@H](O)[C@H](O)[C@@H]2O)c1)NCC(=O)Nc1cc(C(=O)NCCOCCOCCO[C@H]2O[C@H](CO)[C@@H](O)[C@H](O)[C@@H]2O)cc(C(=O)NCCOCCOCCO[C@H]2O[C@H](CO)[C@@H](O)[C@H](O)[C@@H]2O)c1` [Compound 38], the “binding to M1 macrophages, tetra-, hexa- and octa-valent compared” value in test [2] is listed as “did not show additional benefit”. For `O=C(CCC(CCC(=O)NCC(=O)Nc1cc(C(=O)NCCOCCOCCO[C@H]2O[C@H](CO)[C@@H](O)[C@H](O)[C@@H]2O)cc(C(=O)NCCOCCOCCO[C@H]2O[C@H](CO)[C@@H](O)[C@H](O)[C@@H]2O)c1)(CCC(=O)NCC(=O)Nc1cc(C(=O)NCCOCCOCCO[C@H]2O[C@H](CO)[C@@H](O)[C@H](O)[C@@H]2O)cc(C(=O)NCCOCCOCCO[C@H]2O[C@H](CO)[C@@H](O)[C@H](O)[C@@H]2O)c1)NC(=O)CCCC[C@H]1SC[C@@H]2NC(=O)N[C@@H]21)NCC(=O)Nc1cc(C(=O)NCCOCCOCCO[C@H]2O[C@H](CO)[C@@H](O)[C@H](O)[C@@H]2O)cc(C(=O)NCCOCCOCCO[C@H]2O[C@H](CO)[C@@H](O)[C@H](O)[C@@H]2O)c1` [Compound 37], the “binding to M1 macrophages, tetra-, hexa- and octa-valent compared” value is given as “further increased binding” in test [2] (listed as Hexavalent mannose ligand) and “highest binding affinity to M1 macrophages” in test [2] (listed as hexavalent mannose). In the case of `O=C(CCCC[C@@H]1SC[C@@H]2NC(=O)N[C@@H]21)NCC(=O)Nc1cc(C(=O)NCCOCCOCCO[C@H]2O[C@H](CO)[C@@H](O)[C@H](O)[C@@H]2O)cc(C(=O)NCCOCCOCCO[C@H]2O[C@H](CO)[C@@H](O)[C@H](O)[C@@H]2O)c1` [Compound 35], the “mannose ligand conjugated fluorescence” value in test [1] and in test [2] (FIG. 2) was “Dose dependent increase” throughout.
